Laboratory results taken from patent US20050142581A1, “Microrna as ligands and target molecules” (priority 2003, published 2005).
Oligonucleotides are written 5' to 3', each unit as a sugar letter and its base; * is a phosphorothioate linkage, no mark a phosphodiester; rarer units and linkages stand in square brackets, end groups in braces. Plain capitals give the bases only. e = 2'-O-(2-methoxyethyl) (MOE); [5mC] = 5-methylcytosine; d = 2'-deoxy (DNA)

System: human CD40 mRNA
Assay: Inhibition of CD40 mRNA levels by oligonucleotides (real-time RT-PCR)
Format: cell-based
Design: concentration or dose not given beside the values
Details: 2'-MOE gapmers, 18 nucleotides, phosphorothioate throughout; averaged from three experiments
Method: When cells reach about 80% confluency, they are treated with oligonucleotide. For cells grown in 96-well plates, wells are washed once with 200 μl Opti-MEM-1 reduced-serum medium (Life Technologies) and then treated with 130 μl of Opti-MEM-1 containing 3.75 μg/ml LIPOFECTIN (Life Technologies) and the desired oligonucleotide at a final concentration of 150 nM. After 4 hours of treatment, the medium was replaced with fresh medium. Cells were harvested 16 hours after oligonucleotide treatment.
Poly(A)+ mRNA was isolated according to Miura et al. (Clin. Chem., 1996, 42, 1758). Briefly, for cells grown on 96-well plates, growth medium was removed from the cells and each well was washed with 200 ul cold PBS. 60 ul lysis buffer (10 mM Tris-HCl, pH 7.6, 1 mM EDTA, 0.5 M NaCl, 0.5% NP-40, 20 mM vanadyl-ribonucleoside complex) was added to each well, the plate was gently agitated and then incubated at room temperature for five minutes. 55 ul of lysate was transferred to Oligo d(T) coated 96 well plates (AGCT Inc., Irvine, Calif.). Plates were incubated for 60 minutes at room temperature, washed 3 times with 200 ul of wash buffer (10 mM Tris-HCl pH 7.6, 1 mM EDTA, 0.3 M NaCl). After the final wash, the plate was blotted on paper towels to remove excess wash buffer and then air-dried for 5 minutes. 60 ul of elution buffer (5 mM Tris-HCl pH 7.6), preheated to 70° C. was added to each well, the plate was incubated on a 90° hot plate for 5 minutes, and the eluate then transferred to a fresh 96 well plate. Cells grown on 100 mm or other standard plates may be treated similarly, using appropriate volumes of all solutions.
Quantitation of CD40 mRNA levels was determined by real-time PCR (RT-PCR) using the ABI PRISM 7700 Sequence Detection System (PE-Applied Biosystems, Foster City, Calif.) according to manufacturer's instructions. This is a closed-tube, non-gel-based, fluorescence detection system which allows high-throughput quantitation of polymerase chain reaction (PCR) products in real-time.
As opposed to standard PCR, in which amplification products are quantitated after the PCR is completed, products in RT-PCR are quantitated as they accumulate. This is accomplished by including in the PCR reaction an oligonucleotide probe that anneals specifically between the forward and reverse PCR primers, and contains two fluorescent dyes. A reporter dye (e.g., JOE or FAM, PE-Applied Biosystems, Foster City, Calif.) is attached to the 5′ end of the probe and a quencher dye (e.g., TAMRA, PE-Applied Biosystems, Foster City, Calif.) is attached to the 3′ end of the probe. When the probe and dyes are intact, reporter dye emission is quenched by the proximity of the 3′ quencher dye. During amplification, annealing of the probe to the target sequence creates a substrate that can be cleaved by the 5′-exonuclease activity of Taq polymerase.
With each cycle, additional reporter dye molecules are cleaved from their respective probes, and the fluorescence intensity is monitored at regular (six-second) intervals by laser optics built into the ABI PRISM 7700 Sequence Detection System. In each assay, a series of parallel reactions containing serial dilutions of mRNA from untreated control samples generates a standard curve that is used to quantitate the percent inhibition after antisense oligonucleotide treatment of test samples.
RT-PCR reagents were obtained from PE-Applied Biosystems, Foster City, Calif. RT-PCR reactions were carried out by adding 25 ul PCR cocktail (1× Taqman buffer A, 5.5 mM MgCl2, 300 uM each of dATP, dCTP and dGTP, 600 uM of dUTP, 100 nM each of forward primer, reverse primer, and probe, 20 U RNAse inhibitor, 1.25 units AmpliTaq Gold, and 12.5 U MuLV reverse transcriptase) to 96 well plates containing 25 ul poly(A) mRNA solution. […]

Row | Substance | % Inhibition (Inhibition of CD40 mRNA Levels by Chimeric Phosphorothioate Oligonucleotides)
1 | 19211 (DNA e[5mC]*e[5mC]*eA*eG*dG*dC*dG*dG*dC*dA*dG*dG*dA*dC*e[5mC]*eA*e[5mC]*eT; antisense) [compound 19211] | 75.71%
2 | 19212 (DNA eG*eA*e[5mC]*e[5mC]*dA*dG*dG*dC*dG*dG*dC*dA*dG*dG*eA*e[5mC]*e[5mC]*eA; antisense) [compound 19212] | 77.23%
3 | 19213 (DNA eA*eG*eG*eT*dG*dA*dG*dA*dC*dC*dA*dG*dG*dC*eG*eG*e[5mC]*eA; antisense) [compound 19213] | 80.82%
4 | 19214 (DNA e[5mC]*eA*eG*eA*dG*dG*dC*dA*dG*dA*dC*dG*dA*dA*e[5mC]*e[5mC]*eA*eT; antisense) [compound 19214] | 23.68%
5 | 19215 (DNA eG*e[5mC]*eA*eG*dA*dG*dG*dC*dA*dG*dA*dC*dG*dA*eA*e[5mC]*e[5mC]*eA; antisense) [compound 19215] | 45.97%
6 | 19216 (DNA eG*e[5mC]*eA*eA*dG*dC*dA*dG*dC*dC*dC*dC*dA*dG*eA*eG*eG*eA; antisense) [compound 19216] | 65.80%
7 | 19217 (DNA eG*eG*eT*e[5mC]*dA*dG*dC*dA*dA*dG*dC*dA*dG*dC*e[5mC]*e[5mC]*e[5mC]*eA; antisense) [compound 19217] | 74.73%
8 | 19218 (DNA eG*eA*e[5mC]*eA*dG*dC*dG*dG*dT*dC*dA*dG*dC*dA*eA*eG*e[5mC]*eA; antisense) [compound 19218] | 67.21%
9 | 19219 (DNA eG*eA*eT*eG*dG*dA*dC*dA*dG*dC*dG*dG*dT*dC*eA*eG*e[5mC]*eA; antisense) [compound 19219] | 65.14%

Same assay, conditions: oligodeoxynucleotides with phosphorothioate backbones throughout; averages from three experiments

Row | Substance | % INHIB. (Inhibition of CD40 mRNA Levels by Phosphorothioate Oligodeoxynucleotides)
10 | 18681 (DNA dG*dT*dT*dT*dG*dT*dG*dC*dC*dT*dG*dC*dC*dT*dG*dT*dT*dG; antisense) [compound 18681] | 2.43%
11 | 18682 (DNA dG*dT*dC*dT*dT*dG*dT*dT*dT*dG*dT*dG*dC*dC*dT*dG*dC*dC; antisense) [compound 18682] | 0.00%
12 | 18683 (DNA dC*dC*dA*dC*dA*dG*dA*dC*dA*dA*dC*dA*dT*dC*dA*dG*dT*dC; antisense) [compound 18683] | 0.00%
13 | 18684 (DNA dC*dT*dG*dG*dG*dG*dA*dC*dC*dA*dC*dA*dG*dA*dC*dA*dA*dC; antisense) [compound 18684] | 0.00%
14 | 18685 (DNA dT*dC*dA*dG*dC*dC*dG*dA*dT*dC*dC*dT*dG*dG*dG*dG*dA*dC; antisense) [compound 18685] | 0.00%
15 | 18686 (DNA dC*dA*dC*dC*dA*dC*dC*dA*dG*dG*dG*dC*dT*dC*dT*dC*dA*dG; antisense) [compound 18686] | 23.31%
16 | 18687 (DNA dG*dG*dG*dA*dT*dC*dA*dC*dC*dA*dC*dC*dA*dG*dG*dG*dC*dT; antisense) [compound 18687] | 0.00%
17 | 18688 (DNA dG*dA*dG*dG*dA*dT*dG*dG*dC*dA*dA*dA*dC*dA*dG*dG*dA*dT; antisense) [compound 18688] | 0.00%
18 | 18689 (DNA dA*dC*dC*dA*dG*dC*dA*dC*dC*dA*dA*dG*dA*dG*dG*dA*dT*dG; antisense) [compound 18689] | 0.00%
19 | 18690 (DNA dT*dT*dT*dT*dG*dA*dT*dA*dA*dA*dG*dA*dC*dC*dA*dG*dC*dA; antisense) [compound 18690] | 0.00%
20 | 18691 (DNA dT*dA*dT*dT*dG*dG*dT*dT*dG*dG*dC*dT*dT*dC*dT*dT*dG*dG; antisense) [compound 18691] | 0.00%
21 | 18692 (DNA dG*dG*dG*dT*dT*dC*dC*dT*dG*dC*dT*dT*dG*dG*dG*dG*dT*dG; antisense) [compound 18692] | 0.00%
22 | 18693 (DNA dG*dT*dC*dG*dG*dG*dA*dA*dA*dA*dT*dT*dG*dA*dT*dC*dT*dC; antisense) [compound 18693] | 0.00%
23 | 18694 (DNA dG*dA*dT*dC*dG*dT*dC*dG*dG*dG*dA*dA*dA*dA*dT*dT*dG*dA; antisense) [compound 18694] | 0.00%
24 | 18695 (DNA dG*dG*dA*dG*dC*dC*dA*dG*dG*dA*dA*dG*dA*dT*dC*dG*dT*dC; antisense) [compound 18695] | 0.00%
25 | 18696 (DNA dT*dG*dG*dA*dG*dC*dC*dA*dG*dG*dA*dA*dG*dA*dT*dC*dG*dT; antisense) [compound 18696] | 0.00%
26 | 18697 (DNA dT*dG*dG*dA*dG*dC*dA*dG*dC*dA*dG*dT*dG*dT*dT*dG*dG*dA; antisense) [compound 18697] | 0.00%
27 | 18698 (DNA dG*dT*dA*dA*dA*dG*dT*dC*dT*dC*dC*dT*dG*dC*dA*dC*dT*dG; antisense) [compound 18698] | 0.00%
28 | 18699 (DNA dT*dG*dG*dC*dA*dT*dC*dC*dA*dT*dG*dT*dA*dA*dA*dG*dT*dC; antisense) [compound 18699] | 0.00%
29 | 18700 (DNA dC*dG*dG*dT*dT*dG*dG*dC*dA*dT*dC*dC*dA*dT*dG*dT*dA*dA; antisense) [compound 18700] | 0.00%
30 | 18701 (DNA dC*dT*dC*dT*dT*dT*dG*dC*dC*dA*dT*dC*dC*dT*dC*dC*dT*dG; antisense) [compound 18701] | 4.38%
31 | 18702 (DNA dC*dT*dG*dT*dC*dT*dC*dT*dC*dC*dT*dG*dC*dA*dC*dT*dG*dA; antisense) [compound 18702] | 0.00%
32 | 18703 (DNA dG*dG*dT*dG*dC*dA*dG*dC*dC*dT*dC*dA*dC*dT*dG*dT*dC*dT; antisense) [compound 18703] | 0.00%
33 | 18704 (DNA dA*dA*dC*dT*dG*dC*dC*dT*dG*dT*dT*dT*dG*dC*dC*dC*dA*dC; antisense) [compound 18704] | 33.89%
34 | 18705 (DNA dC*dT*dT*dC*dT*dG*dC*dC*dT*dG*dC*dA*dC*dC*dC*dC*dT*dG; antisense) [compound 18705] | 0.00%
35 | 18706 (DNA dA*dC*dT*dG*dA*dC*dT*dG*dG*dG*dC*dA*dT*dA*dG*dC*dT*dC; antisense) [compound 18706] | 0.00%
